According to patent US20220257710A1, “ANTI-INFECTION EFFECTS OF HNRNPA2B1 AND USE THEREOF” (INSTITUTE OF BASIC MEDICAL SCIENCES, CHINESE ACADEMY OF …, priority 2019, published 2022):

System: HSV-1 DNA
Assay: Immunoprecipitation of nuclear protein with anti-hnRNPA2B1 antibody and PCR detection of HSV-1 DNA
Type: binding, HSV-1 (strain F)
Conditions: mouse primary peritoneal macrophages, 2 hours after HSV-1 infection, PCR
Description: Obtaining the primary peritoneal macrophages of mice: C57BL/6 mice (6-8 weeks old, female, Shanghai Bikai Experimental Animal Co., Ltd.) were intraperitoneally injected with 2 ml of 3% mercaptoacetate (Sigma Aldrich) solution once. Three days later, the mice were sacrificed by cervical dislocation, and the abdominal cavity was washed with serum-free medium, sucked out and centrifuged to obtain cells.
The primary peritoneal macrophage cells were cultured in DMEM medium. After HSV-1 (strain F, ATCC) infection for 2 hours, nuclear protein was isolated and immunoprecipitated by anti-hnRNPA2B1 antibody (Santa Cruz) or control antibody (IgG, Santa Cruz). HSV-1 DNA was detected by PCR.

“hnRNPA2B1: heterogeneous nuclear ribonucleoprotein A2B1; endogenous nuclear protein of mouse macrophages precipitated by anti-hnRNPA2B1 antibody” was tested, and the “binding of hnRNPA2B1 to HSV-1 DNA” value was “bound”.
